# From US20190307783A1, “USE OF ANTIVIRALS TO INHIBIT PROTOZOAN VIRUSES” (priority 2016, published 2019)
# Where “and” joins values, the source holds several entries; their conditions need not be identical. Equal values may be shown once. Entries after “also recorded” stand apart in the source; their conditions may differ.
# What was measured:
# L. guyanensis (LgyLRV1+) = test: Drug-inhibition test: growth of LgyLRV1+ parasites; type: cell-based, Leishmania guyanensis
# Experimental: These compounds were examined for their ability to inhibit the growth of LgyLRV1^+ and virus levels by LRV1 capsid flow cytometry.
# Most studies were performed using luciferase-expressing transfectants of L. guyanensis (MHOM/BR/78/M4147) described previously [LRV1^+ LgyM4147/SSU:IR2SAT-LUC(b)c3 and LRV^−LgyM4147/pX63HYG/SSU:IR2SAT-LUC(b)c4] (54); these lines are termed LgyLRV1^+ and LgyLRV1^−, respectively. Two strains of LRV1^+L. braziliensis were examined: LEM2780 (MHOM/BO/90/CS) and LEM3874 (MHOM/BO/99/IMT252 no. 3) (12). Parasites were grown in Schneider's media (Sigma Aldrich, St. Louis, Mo., USA) prepared according to the supplier's instructions with pH adjusted to 6.5 and supplemented with 0.76 mM hemin, 2 μg/mL biopterin, 50 U/mL penicillin, 50 μg/mL streptomycin, and 10% (vol/vol) heat-inactivated FBS. Cell concentrations were determined using a Coulter Counter ([…], Indianapolis, Ind., USA).
# (§1) Parasites were inoculated at 2×10^5 cells/mL into Schneider's media lacking supplemental adenine.
# [1] = system: LRV1 (LgyLRV1 capsid levels); test: microbe, parasite or virus in culture
# Text: Because LRV1 (like most Totiviridae) is not shed from the cell (33, 34), we developed a flow cytometric assay to measure intracellular LRV1 capsid levels on a per cell basis. To detect LRV1 we used binding to a rabbit anti-LgyLRV1 capsid antiserum (35) followed by detection with Alexa Fluor488-conjugated goat anti-rabbit IgG.
# as §1
# For capsid flow cytometry, 10^7 cells were fixed at room temperature using 2% (wt/vol) paraformaldehyde (Thermo Fisher Scientific) in PBS for 2 minutes. They were then incubated in blocking buffer [10% (vol/vol) normal goat serum (Vector Laboratories, Burlingame, Calif., USA) and 0.2% TRITON X-100 in PBS] for 30 minutes at room temperature. Anti-LgyLRV1 capsid antibody (35) was added (1:20,000 dilution) and incubated at room temperature for 1 hour. After two washes with PBS, cells were resuspended in 200 μL PBS with Alexa Fluor488-labeled goat anti-rabbit IgG (Alexafluor, Invitrogen; 1:1,000; or Thermo Fisher Scientific; 1:2,000 dilution), and incubated 1 hour at room temperature. After two additional washes with PBS, cells were subjected to flow cytometry, gating for single cells using forward and side scatter and the data analyzed using […] software (BD Bioscience, San Jose, Calif., USA).
# [2] = animal models; cited from earlier work
# Zika virus = conditions: cultured mammalian cells; read-out: EC50 against Zika virus; cited from earlier work
# LRV2 = test: Virus levels in L. major strain 5-ASKH bearing LRV2; type: cell-based, Leishmania major; conditions: data not shown
# Text: A second line of inquiry would of course be the development of anti-LRV1 agents with improved potency.
# [3] = system: LRV1+ Lgy M4147 parasites; test: Intracellular 2CMA-TP accumulation and retention in parasites (HPLC); type: in vitro ADME, Leishmania guyanensis; conditions: for Intracellular 2CMA-TP concentration: 18 hours, n=4
# Text: To account for the relative sensitivity of Lgy LRV1 to 2CMA compared to the insensitivity of LRV1 RDRP activity to inhibition by 2CMA-TP, we hypothesized that parasites take up and activate 2CMA, accumulating high 2CMA-TP concentrations. We first identified an HPLC protocol capable of resolving both synthetic 2CMA-TP and a smaller peak we presume to be 2CMA-DP from natural ribonucleotides and the internal standard, dGTP (FIG. 23A and FIG. 23B). Standard mixtures of known concentration were used to generate a standard curve relating peak area to 2CMA-TP amounts (FIG. 30). We then tested several protocols for extracting parasite nucleotides and determined that extraction with 1:1 acetonitrile:water performed best. Using this protocol, we compared the nucleotide profiles of LRV1+ Lgy grown in the presence or absence of 10 μM extracellular 2CMA for 18 hours, a time chosen because it corresponds to about two rounds of parasite replication. Under these conditions, we observed a peak co-eluting with synthetic 2CMA-TP that was absent from untreated parasites (FIG. 25B), establishing the parasite's capacity to phosphorylate 2CMA.
# We then measured steady-state levels of intracellular 2CMA-TP following incubation of late-log-phase parasites with 2CMA for 18 hours. To determine the intracellular concentration of 2CMA-TP under these conditions, we measured the average volume of the parasites (roughly 23 fL). […] Over this range of concentrations, internal 2CMA-TP levels exceeded external 2CMA concentrations by 40- to 80-fold (FIG. 26A and FIG. 26B), attesting to the potency of the parasite's purine salvage pathway.
# Cultures of WT or GFP-expressing LRV1+ Lgy M4147 were seeded at 2×10^5 cells/mL and analyzed when they reached early, mid, or late log phase. From each sample, one aliquot was analyzed by light scattering on a flow-cytometer, while another was immobilized by treatment with 20 mM sodium azide and imaged by spinning-disk confocal microscopy {Ellenberger, 1987}. Cell volumes were calculated using a custom ImageJ script {Schindelin, 2012}. A standard curve relating forward scattering intensity to measured volume was developed and used to estimate metabolite concentrations (FIG. 29).
# For drug metabolism studies, 10^8 late-log phase parasites in 5 mL of Schneider's medium were treated with indicated drug concentrations for 20 hours. For accumulation assays, 10^8 cells were harvested immediately. In ‘washout’ experiments, one 5 mL culture was grown for each replicate of each time point. These cultures were spun down, resuspended in drug-free medium, centrifuged again, and finally suspended in 5 mL drug-free Schneider's medium. After 2, 4, or 8 hours, nucleotides were extracted from 10^8 parasites from individual washed cultures and analyzed by HPLC.
# For each sample, cells were collected by centrifugation at 2200×g, 4° C. for 5 minutes, re-suspended in 1 mL ice-cold PBS and re-centrifuged. The cell pellet was gently re-suspended in 100 μL ice-cold 0.5×PBS plus 7 nmol dGTP as a recovery and elution standard. […] Cells were immediately lysed by rapidly re-suspending in 900 μL ice-cold 5:4 acetonitrile:water mixture {Au, 1989} and vortexing continuously for 5 min at 4° C. Insoluble debris was pelleted at 16,000×g for 5 minutes and the clarified extract was transferred to a fresh tube. The solvent was removed by evaporation in a SAVANT SpeedVac concentrator (Thermo Scientific) with the heater off and the vacuum pump refrigeration on. Samples were re-suspended with 80 μL distilled water, flash frozen, and stored at −80° C. prior to HPLC analysis.
# Nucleoside di- and tri-phosphates were separated by isocratic HPLC as described {Moal, 1989}. […]
# [4] = HPLC test of 2CMA-TP degradation during the RDRP reaction; type: physicochemical; conditions: 1 hr incubation, 300 μM, n=3
# Experimental: Incubation of the three LRV1 populations with 2CMA-TP reduced synthesis of both the full-length and small RDRP products (FIG. 22A, FIG. 22B, FIG. 23A, FIG. 23B, and FIG. 24). The synthesis of each product was quantitated and normalized to that obtained with drug-free controls, from which IC50s were calculated (Table 3). […] We were concerned that this arose artificially from 2CMA-TP degradation during the assay.
# To study inhibition of the viral RDRP by 2CMA-TP, varying amounts of the compound were added to standard RDRP reaction mixtures. 2CMA-TP was custom synthesized by Jena Bioscience, and its identity was confirmed using electrospray ionization with a Fourier-transform mass spectrometer in negative ion mode (Thermo Scientific). The stock concentration of 2CMA-TP was calculated by UV absorption at 260 nm, assuming that its molar extinction coefficient was identical to ATP. To measure the amount of 2CMA-TP which is non-specifically hydrolyzed over the course of an RDRP reaction, mock reactions were run using LRV1− gradient fractions, cold UTP, and 300 μM 2CMA-TP. The 20-μL reactions were diluted to 80 μL with distilled water and immediately analyzed by HPLC as described below.
# Lgy LRV1 RDRP = Lgy LRV1 RDRP (Leishmania RNA virus 1 - 4, UniProt Q02382); test: RDRP assay of purified virions, [α-32P]UTP incorporation; type: biochemical, Leishmania RNA virus 1 (Lgy strain M4147); conditions: highest concentration tested 600 μM
# Sequence of Lgy LRV1 RDRP (Q02382 whole entry): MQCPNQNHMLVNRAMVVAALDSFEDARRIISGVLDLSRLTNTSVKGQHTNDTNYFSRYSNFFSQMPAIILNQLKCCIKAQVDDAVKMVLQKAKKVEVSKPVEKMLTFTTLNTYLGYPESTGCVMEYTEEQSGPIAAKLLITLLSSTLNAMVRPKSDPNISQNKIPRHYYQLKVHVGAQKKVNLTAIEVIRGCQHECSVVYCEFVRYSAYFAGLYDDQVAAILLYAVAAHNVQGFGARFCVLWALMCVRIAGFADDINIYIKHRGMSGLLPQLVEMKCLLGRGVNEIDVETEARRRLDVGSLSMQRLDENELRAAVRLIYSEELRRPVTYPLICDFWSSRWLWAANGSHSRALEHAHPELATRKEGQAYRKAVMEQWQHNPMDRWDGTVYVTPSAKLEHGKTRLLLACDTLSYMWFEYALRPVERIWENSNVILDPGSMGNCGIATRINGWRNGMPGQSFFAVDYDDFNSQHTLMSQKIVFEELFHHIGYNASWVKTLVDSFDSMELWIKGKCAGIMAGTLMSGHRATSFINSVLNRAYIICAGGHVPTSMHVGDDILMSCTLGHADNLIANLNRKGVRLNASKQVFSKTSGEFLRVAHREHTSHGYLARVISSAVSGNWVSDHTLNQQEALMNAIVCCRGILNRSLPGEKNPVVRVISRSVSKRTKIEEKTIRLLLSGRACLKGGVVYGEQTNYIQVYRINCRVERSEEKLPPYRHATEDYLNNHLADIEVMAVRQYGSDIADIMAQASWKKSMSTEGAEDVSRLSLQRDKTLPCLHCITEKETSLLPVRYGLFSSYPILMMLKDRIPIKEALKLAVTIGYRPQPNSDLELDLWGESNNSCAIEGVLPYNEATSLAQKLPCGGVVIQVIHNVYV
# Experimental: RDRP assays were carried out with LRV1 virions purified from Lgy strain M4147 by an established cesium chloride (CsCl) equilibrium ultracentrifugation procedure {Widmer, 1989; Widmer, 1990}. Following separation, virus particles were detected and quantified by their reactivity with an anti-capsid antibody (FIG. 21). We reproducibly observed three overlapping ‘peaks’, designated low-, medium-, and high-density (LD, MD and HD) in order of increasing density. […] The densities of the Lgy LRV1 LD, MD and HD peaks were 1.29, 1.36 and 1.41 g/mL, in good agreement with the densities of L-A virus particles bearing ssRNA- and dsRNA- (1.31 and 1.41 g/mL, respectively) {Esteban, 1986}. […]
# To measure RDRP activity, purified virions were allowed to incorporate [α-^32P]UTP in the presence of the remaining nucleoside triphosphates for 1 hour, a time chosen to allow one round of transcription or replication of the viral genome {Widmer, 1990}. RNA was purified and separated by native gel electrophoresis, and the products were visualized and quantified. […]
# RDRP activity of purified virions was measured using an [α-^32P]UTP incorporation assay described previously{Widmer, 1990}. […] The standards lane was excised and stained with ethidium bromide, while the radiolabeled products were detected by exposing an imaging plate for 24 hours and reading it with a FLA-5100 phosphoimager (Fujifilm, Tokyo, Japan). […]
structure (smiles),measurement,setting,value
"C[C@@]1(O)[C@H](O)[C@@H](CO)O[C@H]1n1ccc2c(N)ncnc21 [2′C-methyl-7-deaza-adenosine, 7-deaza-2′-C-methyladenosine]",activity at 100 µM,"L. guyanensis (LgyLRV1+); Leishmania guyanensis, 48 h, LgyLRV1+, tested at 100 μM, growth after 2 days, read-out: Percent control (density)",20%
same,EC50,"L. guyanensis (LgyLRV1+); Leishmania guyanensis, L. guyanensis, relative cellular growth rate, titration, read-out: EC50 for parasite growth",> 100 µM
same,inhibition at 100 µM,"L. guyanensis (LgyLRV1+); Leishmania guyanensis, tested at 100 μM, read-out: Inhibition of parasite density",90%
same,Density (cells/mL),"L. guyanensis (LgyLRV1+); LgyLRV1+, tested at 100 μM, growth after 2 days",3.38E+6 cells/mL
same,activity at 100 µM,"[1]; 48 h, read-out: Percent control (LRV1 capsid)",10%
same,Selectivity for LRV1 versus L. guyanensis growth inhibition,[1]; EC50 growth vs EC50 LRV1 capsid,> 20 fold
same,LRV1 capsid (geometric mean FU),"[1]; LgyLRV1+, tested at 100 μM, 2 days",27 FU
same,EC50,[1]; read-out: EC50 for LRV1 capsid inhibition,~5 µM
same,Reduction in LRV1 capsid levels,[1]; tested at 100 μM,12 fold
same,Serum half-life,[2],1.6 h
same,EC50,Zika virus,10 µM
"C[C@@]1(O)[C@H](O)[C@@H](COP(=O)(O)OP(=O)(O)OP(=O)(O)O)O[C@H]1n1cnc2c(N)ncnc21 [Compound 2CMA-TP, 2′-C-methyladenosine triphosphate]","Inhibition of LRV2 virus levels, in words",LRV2,no inhibition of virus levels
same,Intracellular 2CMA-TP concentration,[3]; 1 μM external 2CMA,78 ± 9.0 µM and 80 µM
same,Intracellular 2CMA-TP concentration,[3]; 3 μM external 2CMA,152 ± 43 µM
same,Intracellular 2CMA-TP concentration,[3]; 10 μM external 2CMA,410 ± 110 µM and 410 µM
same,Accumulated 2CMA-TP retained,[3]; 4 hours in drug-free medium after 18 hours in 10 μM 2CMA,approximately 50%
same,Intrinsic 8 hour 2CMA-TP concentration,"[3]; 8 hours in drug-free medium, corrected for population growth",230 ± 130 µM
same,Average 2CMA-TP concentration after washout,"[3]; 8 hours in drug-free medium, not corrected for parasite replication",170 ± 100 µM
same,2CMA-TP degraded (to apparent 2CMA-DP) during the assay,[4],3.7±0.6%
Nc1ncnc2c1ncn2[C@H]1C[C@H](O)[C@@H](COP(=O)(O)OP(=O)(O)OP(=O)(O)O)O1 [dATP],"Inhibition of RDRP activity, in words",Lgy LRV1 RDRP,failed to inhibit; also recorded: completely inactive
